The text below walks through data of ChEMBL document CHEMBL5338828, “Structure-Activity Relationships of Bis-Intercalating Peptides and Their Application as Antibody-Drug Conjugate Payloads” (J Med Chem, 2023).

In general, half-life refers to the time needed for the level to fall by half in the phase considered. The Kd is the equilibrium constant for the complex coming apart. As usually defined, the IC50 is the concentration that gives 50% inhibition.

Calls of active or inactive are those of the source. Where a SMILES comes first, the peptide text is derived from it. Bridges are numbered along the chain shown (N, C = ends). Roman numbers before positions name the chains, in order. [ ]: non-standard residue; d: D form. The star is where a group is joined. Quinaldoyl(3-OH) = O=C(c1nc2ccccc2cc1O)*; NMeV = CN[C@H](C(=O)O)C(C)C; Pip = O=C(O)[C@@H]1CCCCN1; dDap = NC[C@@H](N)C(=O)O

Series [1] is described as follows: Stability in mouse plasma assessed as half-life at 1 uM measured upto 1440 min by UHPLC-MS/MS analysis. The format is ADME, cell-free.
Series [2] is described as follows: Retention time of the compound by HPLC analysis. The format is physicochemical.
The nature of series [3]: Binding affinity to biotinylated hairpin DNA (unknown origin) assessed as binding constant by SPR analysis. For orientation: In SPR one partner is held on a chip, and binding of the other changes the refractive index at the surface.
Series [4] deals with Clupeidae. As to the kind of experiment: Binding affinity to Herring sperm DNA assessed as melting temperature by differential scanning calorimetric analysis.
The test system of series [5] is OVCAR-3. The series is described as follows: Cytotoxicity against human OVCAR-3 cells assessed as inhibition of cell growth incubated for 5 days by CellTiter-Glo luminescence assay. The format is functional, cell-based. To be noted: OVCAR-3, 120 h. On the technique in general: In ATP-based viability assays light output follows the ATP content of the culture.
Series [6] has as its system EBC-1. The series is described as follows: Cytotoxicity against human EBC-1 cells assessed as inhibition of cell growth incubated for 5 days by CellTiter-Glo luminescence assay. In kind it is functional, cell-based. Conditions: EBC-1, 120 h.
Series [7] deals with IGROV-1. The series is described as follows: Cytotoxicity against human IGROV-1 cells assessed as inhibition of cell growth incubated for 5 days by CellTiter-Glo luminescence assay. The format is functional, cell-based. To be noted: IGROV-1, 120 h.
Series [8] can be described thus: Stability in mouse plasma at 1 uM measured upto 1440 min by UHPLC-MS/MS analysis. In kind it is ADME, cell-free. To be noted: 24 h.
Series [9] can be described thus: Stability in mouse plasma assessed as parent compound remaining measured after 24 hrs by LC-MS analysis. The format is ADME, cell-free. Conditions: read-out: Stability.
The nature of series [10]: Binding affinity to biotinylated hairpin DNA (unknown origin) at 0.312 to 5 uM by SPR analysis. To be noted: dose 0.312-5 µM.

Regarding `CCOC(=O)[C@H](CCc1ccccc1)N[C@@H](C)C(=O)N1CCC[C@H]1C(=O)O` [ENALAPRIL], the half-life at 1 µM in series [1] stood at 2.83 h.

The compound `CC(C)[C@H]1C(=O)NC[C@@H](NC(=O)c2nc3ccccc3cc2O)C(=O)N2CCCC[C@H]2C(=O)NCC(=O)N(C)CC(=O)N2CCCC[C@H]2C(=O)NC[C@@H](NC(=O)c2nc3ccccc3cc2O)C(=O)N2CCCC[C@H]2C(=O)NCC(=O)N(C)CC(=O)N1C` showed a Retention_time in [2] of 16.4 min. The Kd in [3] came to 570 nM. For the same compound, the Tm in [4] came to 92 °C.

In turn, `CN1CC(=O)N2CCCC[C@H]2C(=O)NC[C@@H](NC(=O)c2nc3ccccc3cc2O)C(=O)N2CCCC[C@H]2C(=O)NCC(=O)N(C)CC(=O)N2CCCC[C@H]2C(=O)NC[C@@H](NC(=O)c2nc3ccccc3cc2O)C(=O)N2CCCC[C@H]2C(=O)NCC1=O` had a Retention_time in series [2] of 15.7 min. Besides, in series [3], the dissociation constant (Kd) amounted to 500 nM. Also, the Tm in [4] was 97 °C.

As for `CC(C)[C@H]1C(=O)NC[C@@H](NC(=O)c2nc3ccccc3cc2O)C(=O)N2CCCC[C@H]2C(=O)NCC(=O)N(C)CC(=O)N(C)[C@@H](C(C)C)C(=O)OC[C@@H](NC(=O)c2nc3ccccc3cc2O)C(=O)N2CCCC[C@H]2C(=O)NCC(=O)N(C)CC(=O)N1C`, the IC50 in series [5] is 0.6 nM; in series [6], 0.6 nM; in series [7], 1.2 nM. The half-life at 1 µM in [1] is 12 h. The Retention_time in [2] stood at 19.6 min. Besides, the dissociation constant Kd in series [3] worked out at 80 nM. Moreover, the Tm in series [4] came out at 97 °C.

`CC(C)[C@H]1COC[C@@H](NC(=O)c2nc3ccccc3cc2O)C(=O)N2CCCC[C@H]2C(=O)NCC(=O)N(C)CC(=O)N(C)[C@@H](C(C)C)C(=O)NC[C@@H](NC(=O)c2nc3ccccc3cc2O)C(=O)N2CCCC[C@H]2C(=O)NCC(=O)N(C)CC(=O)N1C`: the IC50 was 2.9 nM in series [5], 5.4 nM in series [6] and 6.4 nM in series [7]. Further, the Stability entry in [8] is listed as “Stable”. The same compound had a Retention_time in [2] of 18.4 min. Further, the dissociation constant (Kd) in series [3] was found to be 300 nM. For the same compound, the Tm in [4] was 92 °C.

As for `CC(C)[C@H]1C(=O)NC[C@@H](NC(=O)c2nc3ccccc3cc2O)C(=O)N2CCCC[C@H]2C(=O)NCC(=O)N(C)CC(=O)N2CCC[C@H]2C(=O)NC[C@@H](NC(=O)c2nc3ccccc3cc2O)C(=O)N2CCCC[C@H]2C(=O)NCC(=O)N(C)CC(=O)N1C`, in [2], the Retention_time came to 15 min. In [3], the equilibrium dissociation constant (Kd) is 1100 nM. Further, the Tm in series [4] amounted to 88 °C.

For the compound `CC(C)[C@H]1C(=O)NC[C@@H](NC(=O)c2nc3ccccc3cc2O)C(=O)N2CCCC[C@H]2C(=O)NCC(=O)N(C)CC(=O)N(C)[C@@H](C(C)C)C(=O)NC[C@@H](NC(=O)c2nc3ccccc3cc2O)C(=O)N2CCCC[C@H]2C(=O)NCC(=O)N(C)CC(=O)N1C`, the figures for the IC50 in series [5], in series [6] and in series [7] were 18 nM, 46 nM and 39 nM, respectively. In addition, the Stability result in [8] is recorded as “Stable”. Moreover, the Retention_time in series [2] stood at 17.1 min. In addition, the Kd in [3] turned out to be 3300 nM. Besides, in series [4], the Tm is 88 °C.

Turning to `CC(C)[C@H]1C(=O)OC[C@@H](NC(=O)c2nc3ccccc3cc2O)C(=O)N2CCCC[C@H]2C(=O)NCC(=O)N(C)CC(=O)N(C)[C@@H](C(C)C)C(=O)OC[C@@H](NC(=O)c2nc3ccccc3cc2O)C(=O)N2CCCC[C@H]2C(=O)NCC(=O)N(C)CC(=O)N1C`, the IC50 in series [5] turned out to be 1 nM; in series [6], 1.4 nM; in series [7] it was 1.6 nM. Besides, the half-life at 1 µM in series [1] was determined as 5.5 h. In series [9], the remaining at 24 h is below 5%. Also, the Retention_time in series [2] is on record as 21.6 min. Also, the equilibrium dissociation constant (Kd) in [3] turned out to be 360 nM. For the same compound, in [4], the Tm is 102 °C.

For `CC(C)[C@H]1COC[C@@H](NC(=O)c2nc3ccccc3cc2O)C(=O)N2CCCC[C@H]2C(=O)NCC(=O)N(C)CC(=O)N(C)[C@@H](C(C)C)C(=O)OC[C@@H](NC(=O)c2nc3ccccc3cc2O)C(=O)N2CCCC[C@H]2C(=O)NCC(=O)N(C)CC(=O)N1C`, in [2], the Retention_time is given as 20.2 min. The dissociation constant (Kd) in series [3] came out at 300 nM. Besides, the Tm in series [4] came out at 96 °C.

In series [2], `CN1CC(=O)N2CCCC[C@H]2COC[C@@H](NC(=O)c2nc3ccccc3cc2O)C(=O)N2CCCC[C@H]2C(=O)NCC(=O)N(C)CC(=O)N2CCCC[C@H]2C(=O)NC[C@@H](NC(=O)c2nc3ccccc3cc2O)C(=O)N2CCCC[C@H]2C(=O)NCC1=O` displayed a Retention_time of 16.6 min. In addition, the equilibrium dissociation constant (Kd) in series [3] is 950 nM. Besides, in [4], the Tm was determined as 94 °C.

`CC[C@H](C)[C@H]1C(=O)NC[C@@H](NC(=O)c2nc3ccccc3cc2O)C(=O)N2CCCC[C@H]2C(=O)NCC(=O)N(C)CC(=O)N(C)[C@@H]([C@@H](C)CC)C(=O)NC[C@@H](NC(=O)c2nc3ccccc3cc2O)C(=O)N2CCCC[C@H]2C(=O)NCC(=O)N(C)CC(=O)N1C` had a Retention_time in series [2] of 18.8 min. Further, the Kd in series [3] was determined as 400 nM. Besides, in [4], the Tm came to 91 °C.

`CC(C)[C@H]1C(=O)NC[C@@H](NC(=O)c2nc3ccccc3cc2O)C(=O)N2CCCC[C@H]2C(=O)NCC(=O)NCC(=O)N(C)[C@@H](C(C)C)C(=O)NC[C@@H](NC(=O)c2nc3ccccc3cc2O)C(=O)N2CCCC[C@H]2C(=O)NCC(=O)NCC(=O)N1C` (I: {Quinaldoyl(3-OH)}-[dDap][Pip]GG[NMeV] / II: {Quinaldoyl(3-OH)}-[dDap][Pip]GG[NMeV]; amide I:1-II:C, I:C-II:1) registered a Retention_time in [2] of 15.1 min. In addition, the outcome in [10] was inactive.

Consider `CC[C@H](C)[C@H]1C(=O)NC[C@@H](NC(=O)c2nc3ccccc3cc2O)C(=O)N2CCCC[C@H]2C(=O)NCC(=O)N(C)CC(=O)N(C)[C@@H](C(C)C)C(=O)NC[C@@H](NC(=O)c2nc3ccccc3cc2O)C(=O)N2CCCC[C@H]2C(=O)NCC(=O)N(C)CC(=O)N1C`, for which the Retention_time in [2] was 18 min. The Kd in series [3] is 200 nM. The Tm in series [4] turned out to be 89 °C.

On to `CC(C)[C@H]1C(=O)NC[C@@H](NC(=O)c2nc3ccccc3cc2O)C(=O)N2CCCC[C@H]2C(=O)NCC(=O)N(C)CC(=O)N2CCCCC[C@H]2C(=O)NC[C@@H](NC(=O)c2nc3ccccc3cc2O)C(=O)N2CCCC[C@H]2C(=O)NCC(=O)N(C)CC(=O)N1C`, for which the Retention_time in series [2] came to 16.4 min. Moreover, the equilibrium dissociation constant (Kd) in series [3] was determined as 700 nM. Moreover, the Tm in series [4] amounted to 88 °C.

In [2], `CC(C)[C@H]1C(=O)NC[C@@H](NC(=O)c2nc3ccccc3cc2O)C(=O)N2CCCC[C@H]2C(=O)NCC(=O)N(C)CC(=O)N(C)[C@@H](C2CCCCC2)C(=O)NC[C@@H](NC(=O)c2nc3ccccc3cc2O)C(=O)N2CCCC[C@H]2C(=O)NCC(=O)N(C)CC(=O)N1C` showed a Retention_time of 18.9 min. Also, the dissociation constant Kd in series [3] is 400 nM. In [4], the Tm was 86 °C.

In series [2], `CC(C)[C@H]1C(=O)NCC(=O)N(C)CC(=O)N2CCCC[C@H]2C(=O)NC[C@@H](NC(=O)c2nc3ccccc3cc2O)C(=O)N(C)[C@@H](C(C)C)C(=O)NCC(=O)N(C)CC(=O)N2CCCC[C@H]2C(=O)NC[C@@H](NC(=O)c2nc3ccccc3cc2O)C(=O)N1C` returned a Retention_time of 16.8 min. Also, the outcome in series [10] was inactive.
